The record followed here is paper PMC13534584, “ATP13A4 gates extracellular polyamine levels to control excitatory synaptogenesis” (Nature Communications, 2026).

Changes are numbered by the printed parent chain.

What all share (test): ADP-Glo Max ATPase assay, dose-response
Holding throughout (assay type): biochemical
Common to all, as to conditions: 5 mM ATP, 11 mM MgCl2, 100 mM KCl, MOPS-KOH pH 7, 37 °C, 0.001% DDM
For orientation: In ADP-Glo the light output rises with the ADP produced.

Experiment [1] concerns the target T1, hATP13A4 (Homo sapiens, UniProt Q4VNC1).
T1 construct: gene ATP13A4; solubilised in DDM
T1 sequence (Q4VNC1 1-1196): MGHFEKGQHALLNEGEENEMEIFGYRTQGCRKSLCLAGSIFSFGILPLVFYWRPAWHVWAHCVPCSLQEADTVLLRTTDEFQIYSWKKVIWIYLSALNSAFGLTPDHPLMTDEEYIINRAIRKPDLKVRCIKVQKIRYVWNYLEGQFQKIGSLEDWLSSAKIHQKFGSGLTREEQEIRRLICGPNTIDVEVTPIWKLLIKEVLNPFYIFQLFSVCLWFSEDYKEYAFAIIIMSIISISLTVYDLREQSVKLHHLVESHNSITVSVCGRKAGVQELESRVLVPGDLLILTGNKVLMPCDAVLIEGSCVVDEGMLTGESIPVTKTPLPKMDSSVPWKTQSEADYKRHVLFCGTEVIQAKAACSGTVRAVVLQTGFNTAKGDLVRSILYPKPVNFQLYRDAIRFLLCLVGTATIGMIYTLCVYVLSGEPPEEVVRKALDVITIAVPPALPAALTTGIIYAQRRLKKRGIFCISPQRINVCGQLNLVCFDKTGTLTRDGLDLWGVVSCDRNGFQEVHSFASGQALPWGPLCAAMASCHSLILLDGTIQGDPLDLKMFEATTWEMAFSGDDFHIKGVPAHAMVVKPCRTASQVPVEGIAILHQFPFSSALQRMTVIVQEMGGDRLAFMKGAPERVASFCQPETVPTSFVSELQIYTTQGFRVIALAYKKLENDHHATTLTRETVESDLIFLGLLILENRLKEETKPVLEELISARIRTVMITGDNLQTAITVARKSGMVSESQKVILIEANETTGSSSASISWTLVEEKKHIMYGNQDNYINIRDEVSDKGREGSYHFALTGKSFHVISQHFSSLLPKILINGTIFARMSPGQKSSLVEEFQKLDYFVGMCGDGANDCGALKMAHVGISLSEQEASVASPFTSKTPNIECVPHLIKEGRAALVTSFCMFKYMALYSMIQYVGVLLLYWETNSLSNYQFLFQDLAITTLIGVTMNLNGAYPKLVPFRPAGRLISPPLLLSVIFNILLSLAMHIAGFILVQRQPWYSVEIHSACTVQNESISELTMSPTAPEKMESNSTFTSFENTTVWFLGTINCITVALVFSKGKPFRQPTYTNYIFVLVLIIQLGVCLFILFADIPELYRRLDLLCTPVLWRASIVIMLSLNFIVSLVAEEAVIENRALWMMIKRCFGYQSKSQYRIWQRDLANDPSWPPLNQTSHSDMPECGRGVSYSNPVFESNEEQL

The target in experiment [2] is T2, hATP13A4 (Homo sapiens, UniProt Q4VNC1, A356V).
T2 construct: gene ATP13A4; solubilised in DDM
T2 sequence (Q4VNC1 1-1196 A356V): T1 sequence (Q4VNC1 1-1196) with A356V

Experiment [3] addresses T3, hATP13A4 (Homo sapiens, UniProt Q4VNC1, E276K).
T3 construct: gene ATP13A4; solubilised in DDM
T3 sequence (Q4VNC1 1-1196 E276K): T1 sequence (Q4VNC1 1-1196) with E276K

For `NCCCCNCCCN` [SPD, spermidine], the ATPase stimulation entry in experiment [1] is listed as “each stimulated ATPase activity of purified wild-type (WT) hATP13A4 in a concentration-dependent manner”. Also, the “spermidine-dependent ATPase activity” value in experiment [2] was “spermidine-dependent ATPase activity of purified, solubilized ATP13A4 (WT and disease-associated variants p.E276K, p.A356V”; in experiment [3], “p.E276K reduces spermidine-stimulated ATPase activity to a similar extent as p.A356V and p.E646D”.

Consider `NCCCNCCCCNCCCN` [SPM, spermine], for which the ATPase stimulation result in experiment [1] is “ATP13A4 exhibits the highest apparent affinity for spermine and spermidine”.

As for `NCCCCCN` [cadaverine], in experiment [1], the ATPase stimulation result was “Putrescine, spermidine, spermine, cadaverine, and acetylated polyamine derivatives each stimulated ATPase activity”.
